Source: patent US6355799B1, “Substituted benzene compounds, process for their preparation, and herbicidal and defoliant compositions containing them” (ISK Americas Incorporated, priority 1997, dated 2002)

Tests used:
Format in all cases: in vivo
[1] = test system: redroot pigweed (Amaranthus retroflexus, AMARE); test: Pre-emerge test, greenhouse herbicide activity screening; conditions: for phytotoxicity rating AMARE: 14 days after application, rating scale 0-100
Procedure, shortened: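 Compounds in acetone were track-sprayed at 187 l/ha, 15–1000 g ai/ha, onto sandy loam pots. Pre-emerge seeds were sown one day before spraying, with surface watering afterwards. Post-emerge plants were at the 2–3 leaf stage and sprayed with 0.25% v/v non-ionic surfactant. Injury was rated 0–100 at 14 days.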

[2] = test system: barnyardgrass (Echinochloa crus-galli, ECHCG); test: as above; conditions: for phytotoxicity rating ECHCG: 14 days after application, rating scale 0-100
Procedure, shortened: (§1)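 Plants grown in 10 cm pots of sandy loam mix received acetone-dissolved compounds through a moving flat-fan nozzle. Doses ranged from 15 to 1000 g ai/ha. Pre-emerge pots were seeded one day earlier, post-emerge pots 8–21 days earlier. Fourteen days on, each pot was graded 0–100 for damage.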

[3] = test system: green foxtail (Setaria viridis, SETVI); test: as above; conditions: for phytotoxicity rating SETVI: 14 days after application, rating scale 0-100
Procedure, shortened: as §1

[4] = test system: ivyleaf morningglory (Ipomoea hederacea, IPOHE); test: as above; conditions: for phytotoxicity rating IPOHE: 14 days after application, rating scale 0-100
Procedure, shortened: as §1

[5] = test system: johnsongrass (Sorghum halepense, SORHA); test: as above; conditions: for phytotoxicity rating SORHA: 14 days after application, rating scale 0-100
Procedure, shortened: as §1

[6] = test system: lambsquarters (Chenopodium album, CHEAL); test: as above; conditions: for phytotoxicity rating CHEAL: 14 days after application, rating scale 0-100
Procedure, shortened: as §1

[7] = test system: large crabgrass (Digitaria sanguinalis, DIGSA); test: as above; conditions: for phytotoxicity rating DIGSA: 14 days after application, rating scale 0-100
Procedure, shortened: as §1

[8] = test system: sicklepod (Cassia obtusifolia, CASOB); test: as above; conditions: for phytotoxicity rating CASOB: 14 days after application, rating scale 0-100
Procedure, shortened: as §1

[9] = test system: velvetleaf (Abutilon theophrasti, ABUTH); test: as above; conditions: for phytotoxicity rating ABUTH: 14 days after application, rating scale 0-100
Procedure, shortened: as §1

[10] = test system: field corn (Zea mays L., var. Dekalb 535, CORN); test: Pre-emerge test, crop safety; conditions: for phytotoxicity rating CORN: 14 days after application, rating scale 0-100
Procedure, shortened: (§2)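 Sandy loam pots; pre-emerge: sown 1 d pre-spray, surface-watered after, then bottom-watered. Post-emerge: sown 8–21 d before, 2–3 leaf stage, + 0.25% v/v NIS, bottom-watered. Acetone, 187 l/ha track spray, 15–1000 g ai/ha. 0–100 injury score, day 14.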

[11] = test system: upland rice (Oryza sp., var. Tebonnet, RICE); test: Pre-emerge test, crop safety; conditions: for phytotoxicity rating RICE: 14 days after application, rating scale 0-100
Procedure, shortened: as §2

[12] = test system: barnyardgrass (Echinochloa crus-galli, ECHCG); test: Post-emerge test, greenhouse herbicide activity screening; conditions: post-emerge; for Post-emerge Herbicidal Activity ECHCG (phytotoxicity rating): 14 days after application, rating scale 0-100; for Post-emerge Herbicidal Activity ECHCG: phytotoxicity rating 0-100 at 14 days after application
Procedure, shortened: as §2

[13] = test system: green foxtail (Setaria viridis, SETVI); test: as above; conditions: post-emerge; for Post-emerge Herbicidal Activity SETVI (phytotoxicity rating): 14 days after application, rating scale 0-100; for Post-emerge Herbicidal Activity SETVI: phytotoxicity rating 0-100 at 14 days after application
Procedure, shortened: as §2

[14] = test system: ivyleaf morningglory (Ipomoea hederacea, IPOHE); test: as above; conditions: post-emerge; for Post-emerge Herbicidal Activity IPOHE (phytotoxicity rating): 14 days after application, rating scale 0-100; for Post-emerge Herbicidal Activity IPOHE: phytotoxicity rating 0-100 at 14 days after application
Procedure, shortened: as §2

[15] = test system: johnsongrass (Sorghum halepense, SORHA); test: as above; conditions: post-emerge; for Post-emerge Herbicidal Activity SORHA (phytotoxicity rating): 14 days after application, rating scale 0-100; for Post-emerge Herbicidal Activity SORHA: phytotoxicity rating 0-100 at 14 days after application
Procedure, shortened: as §2

[16] = test system: lambsquarters (Chenopodium album, CHEAL); test: as above; conditions: post-emerge; for Post-emerge Herbicidal Activity CHEAL (phytotoxicity rating): 14 days after application, rating scale 0-100; for Post-emerge Herbicidal Activity CHEAL: phytotoxicity rating 0-100 at 14 days after application
Procedure, shortened: as §2

[17] = test system: large crabgrass (Digitaria sanguinalis, DIGSA); test: as above; conditions: post-emerge; for Post-emerge Herbicidal Activity DIGSA (phytotoxicity rating): 14 days after application, rating scale 0-100; for Post-emerge Herbicidal Activity DIGSA: phytotoxicity rating 0-100 at 14 days after application
Procedure, shortened: as §2

[18] = test system: redroot pigweed (Amaranthus retroflexus, AMARE); test: as above; conditions: post-emerge; for Post-emerge Herbicidal Activity AMARE (phytotoxicity rating): 14 days after application; for Post-emerge Herbicidal Activity AMARE: phytotoxicity rating 0-100 at 14 days after application
Procedure, shortened: as §2

[19] = test system: sicklepod (Cassia obtusifolia, CASOB); test: as above; conditions: post-emerge; for Post-emerge Herbicidal Activity CASOB (phytotoxicity rating): 14 days after application, rating scale 0-100; for Post-emerge Herbicidal Activity CASOB: phytotoxicity rating 0-100 at 14 days after application
Procedure, shortened: as §2

[20] = test system: velvetleaf (Abutilon theophrasti, ABUTH); test: as above; conditions: post-emerge; for Post-emerge Herbicidal Activity ABUTH (phytotoxicity rating): 14 days after application, rating scale 0-100; for Post-emerge Herbicidal Activity ABUTH: phytotoxicity rating 0-100 at 14 days after application
Procedure, shortened: as §2

[21] = test system: field corn (Zea mays L., var. Dekalb 535, CORN); test: Post-emerge test, crop safety; conditions: post-emerge; for Post-emerge Herbicidal Activity CORN (crop damage rating): 14 days after application, rating scale 0-100; for Post-emerge Herbicidal Activity CORN: crop damage rating 0-100 at 14 days after application
Procedure, shortened: (§3)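 Each test used a mechanized track sprayer delivering 187 l/ha of acetone solution at 15–1000 g ai/ha. Post-emerge foliage at 2–3 leaves was treated with added 0.25% v/v non-ionic surfactant and bottom-watered only. Injury was assessed on day 14, where 100 means total kill.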

[22] = test system: upland rice (Oryza sp., var. Tebonnet, RICE); test: Post-emerge test, crop safety; conditions: post-emerge; for Post-emerge Herbicidal Activity RICE (crop damage rating): 14 days after application, rating scale 0-100; for Post-emerge Herbicidal Activity RICE: crop damage rating 0-100 at 14 days after application
Procedure, shortened: as §3

[23] = 250 g ai/ha, rating scale 0-100, 14 days after application
[24] = pre-emerge, rate 63 g ai/ha, phytotoxicity rating 0-100 at 14 days after application
[25] = crop damage, pre-emerge, rate 63 g ai/ha, phytotoxicity rating 0-100 at 14 days after application

COc1c(Cl)cc(F)c(-n2c(=O)cc(C(F)(F)F)n(C)c2=O)c1NN=C(C(F)(F)F)C(F)(F)F [15-21]
60: Post-emerge Herbicidal Activity ECHCG (phytotoxicity rating) ([12]; 63 g ai/ha)
40: Post-emerge Herbicidal Activity SORHA (phytotoxicity rating) ([15]; 63 g ai/ha)
90: Post-emerge Herbicidal Activity SETVI (phytotoxicity rating) ([13]; 250 g ai/ha) | Post-emerge Herbicidal Activity CORN (crop damage rating) ([21]; 250 g ai/ha) | Post-emerge Herbicidal Activity RICE (crop damage rating) ([22]; 250 g ai/ha)
99: phytotoxicity rating ECHCG ([2]; pre-emerge, 63 g ai/ha) | phytotoxicity rating RICE ([11]; pre-emerge, 63 g ai/ha)
50: Post-emerge Herbicidal Activity SETVI (phytotoxicity rating) ([13]; 63 g ai/ha)
30: Post-emerge Herbicidal Activity DIGSA (phytotoxicity rating) ([17]; 63 g ai/ha) | Post-emerge Herbicidal Activity CORN (crop damage rating) ([21]; 63 g ai/ha)
95: phytotoxicity rating CORN ([10]; pre-emerge, 63 g ai/ha) | Post-emerge Herbicidal Activity SORHA (phytotoxicity rating) ([15]; 250 g ai/ha) | Post-emerge Herbicidal Activity DIGSA (phytotoxicity rating) ([17]; 250 g ai/ha) | Post-emerge Herbicidal Activity AMARE (phytotoxicity rating) ([18]; 63 g ai/ha, rating scale 0-100 (0 no damage, 100 complete death))
80: Post-emerge Herbicidal Activity RICE (crop damage rating) ([22]; 63 g ai/ha)
100: phytotoxicity rating AMARE ([1]; pre-emerge, 63 g ai/ha) | phytotoxicity rating AMARE ([1]; pre-emerge, 250 g ai/ha) | phytotoxicity rating ECHCG ([2]; pre-emerge, 250 g ai/ha) | phytotoxicity rating SETVI ([3]; pre-emerge, 63 g ai/ha) | phytotoxicity rating SETVI ([3]; pre-emerge, 250 g ai/ha) | phytotoxicity rating IPOHE ([4]; pre-emerge, 63 g ai/ha) | phytotoxicity rating IPOHE ([4]; pre-emerge, 250 g ai/ha) | phytotoxicity rating SORHA ([5]; pre-emerge, 63 g ai/ha) | phytotoxicity rating SORHA ([5]; pre-emerge, 250 g ai/ha) | phytotoxicity rating CHEAL ([6]; pre-emerge, 63 g ai/ha) | phytotoxicity rating CHEAL ([6]; pre-emerge, 250 g ai/ha) | phytotoxicity rating DIGSA ([7]; pre-emerge, 63 g ai/ha) | phytotoxicity rating DIGSA ([7]; pre-emerge, 250 g ai/ha) | phytotoxicity rating CASOB ([8]; pre-emerge, 63 g ai/ha) | phytotoxicity rating CASOB ([8]; pre-emerge, 250 g ai/ha) | phytotoxicity rating ABUTH ([9]; pre-emerge, 63 g ai/ha) | phytotoxicity rating ABUTH ([9]; pre-emerge, 250 g ai/ha) | phytotoxicity rating CORN ([10]; pre-emerge, 250 g ai/ha) | phytotoxicity rating RICE ([11]; pre-emerge, 250 g ai/ha) | Post-emerge Herbicidal Activity ECHCG (phytotoxicity rating) ([12]; 250 g ai/ha) | Post-emerge Herbicidal Activity IPOHE (phytotoxicity rating) ([14]; 63 g ai/ha) | Post-emerge Herbicidal Activity IPOHE (phytotoxicity rating) ([14]; 250 g ai/ha) | Post-emerge Herbicidal Activity CHEAL (phytotoxicity rating) ([16]; 63 g ai/ha) | Post-emerge Herbicidal Activity CHEAL (phytotoxicity rating) ([16]; 250 g ai/ha) | Post-emerge Herbicidal Activity AMARE (phytotoxicity rating) ([18]; 250 g ai/ha, rating scale 0-100) | Post-emerge Herbicidal Activity CASOB (phytotoxicity rating) ([19]; 63 g ai/ha) | Post-emerge Herbicidal Activity CASOB (phytotoxicity rating) ([19]; 250 g ai/ha) | Post-emerge Herbicidal Activity ABUTH (phytotoxicity rating) ([20]; 63 g ai/ha) | Post-emerge Herbicidal Activity ABUTH (phytotoxicity rating) ([20]; 250 g ai/ha)

Nc1c(O)c(Cl)cc(F)c1N1C(=O)C2CCCCN2C1=S (single isomer, unassigned) [12-2]
99: Pre-emerge herbicidal activity, phytotoxicity rating ECHCG [2, 23] | Pre-emerge Herbicidal Activity CASOB [8, 24] | Pre-emerge phytotoxicity rating, crop damage CORN [10, 23] | Pre-emerge phytotoxicity rating, crop damage RICE [11, 23]
30: Post-emerge Herbicidal Activity ECHCG ([12]; 63 g ai/ha) | Post-emerge Herbicidal Activity AMARE ([18]; 63 g ai/ha)
40: Pre-emerge Herbicidal Activity ECHCG [2, 24] | Pre-emerge Herbicidal Activity CORN [10, 25]
100: Pre-emerge herbicidal activity, phytotoxicity rating AMARE [1, 23] | Pre-emerge Herbicidal Activity AMARE [1, 24] | Pre-emerge herbicidal activity, phytotoxicity rating SETVI [3, 23] | Pre-emerge herbicidal activity, phytotoxicity rating IPOHE [4, 23] | Pre-emerge herbicidal activity, phytotoxicity rating SORHA [5, 23] | Pre-emerge herbicidal activity, phytotoxicity rating CHEAL [6, 23] | Pre-emerge Herbicidal Activity CHEAL [6, 24] | Pre-emerge herbicidal activity, phytotoxicity rating DIGSA [7, 23] | Pre-emerge herbicidal activity, phytotoxicity rating CASOB [8, 23] | Pre-emerge herbicidal activity, phytotoxicity rating ABUTH [9, 23] | Pre-emerge Herbicidal Activity ABUTH [9, 24] | Post-emerge Herbicidal Activity IPOHE ([14]; 250 g ai/ha) | Post-emerge Herbicidal Activity CHEAL ([16]; 63 g ai/ha) | Post-emerge Herbicidal Activity CHEAL ([16]; 250 g ai/ha) | Post-emerge Herbicidal Activity AMARE ([18]; 250 g ai/ha) | Post-emerge Herbicidal Activity ABUTH ([20]; 63 g ai/ha) | Post-emerge Herbicidal Activity ABUTH ([20]; 250 g ai/ha) | Post-emerge Herbicidal Activity CORN ([21]; 250 g ai/ha)
0: Post-emerge Herbicidal Activity SETVI ([13]; 63 g ai/ha) | Post-emerge Herbicidal Activity DIGSA ([17]; 63 g ai/ha)
70: Post-emerge Herbicidal Activity DIGSA ([17]; 250 g ai/ha)
80: Post-emerge Herbicidal Activity ECHCG ([12]; 250 g ai/ha) | Post-emerge Herbicidal Activity RICE ([22]; 250 g ai/ha)
20: Post-emerge Herbicidal Activity RICE ([22]; 63 g ai/ha)
90: Pre-emerge Herbicidal Activity SORHA [5, 24] | Post-emerge Herbicidal Activity IPOHE ([14]; 63 g ai/ha) | Post-emerge Herbicidal Activity SORHA ([15]; 250 g ai/ha)
10: Post-emerge Herbicidal Activity SORHA ([15]; 63 g ai/ha) | Post-emerge Herbicidal Activity CORN ([21]; 63 g ai/ha)
50: Pre-emerge Herbicidal Activity RICE [11, 25] | Post-emerge Herbicidal Activity SETVI ([13]; 250 g ai/ha) | Post-emerge Herbicidal Activity CASOB ([19]; 63 g ai/ha)
95: Pre-emerge Herbicidal Activity SETVI [3, 24] | Pre-emerge Herbicidal Activity IPOHE [4, 24] | Pre-emerge Herbicidal Activity DIGSA [7, 24] | Post-emerge Herbicidal Activity CASOB ([19]; 250 g ai/ha)
